From the CheMixHub ionic liquid set

Assay: xn = mol fraction of the nth substance listed

CCCC[n+]1ccn(C)c1.O=S(=O)([O-])C(F)(F)F + NCCO + O
viscosity [mPa·s], 101 kPa
Conditions	293.15 K	298.15 K	303.15 K	308.15 K	313.15 K	318.15 K	323.15 K	328.15 K	333.15 K
x2 = 0.1349, x3 = 0.8555	4.3	3.656	3.152	2.758	2.447	2.198	2.004	1.847	1.718
x2 = 0.1564, x3 = 0.8171	–	5.025	4.267	3.67	3.186	2.805	2.511	2.269	2.073
x2 = 0.2358, x3 = 0.6935	11.54	9.48	7.87	6.611	5.618	4.823	4.182	3.665	3.242

CCCC[n+]1ccn(C)c1.O=S(=O)([O-])C(F)(F)F + Nc1ccccc1
100 kPa
Conditions	viscosity [mPa·s]
288.15 K, x2 = 0	132.7
293.15 K, x2 = 0.3002	57.6
298.15 K, x2 = 0.1995	56.1
303.15 K, x2 = 0.3002	37.3
318.15 K, x2 = 0.3996	17.67
323.15 K, x2 = 0.3002	18.28
323.15 K, x2 = 0.8999	3.12
328.15 K, x2 = 0.8999	2.76
333.15 K, x2 = 0.1995	16.23

CCCC[n+]1ccn(C)c1.[Cl-] + O
Conditions	electrical conductivity [S/m]	viscosity [mPa·s]
278.15 K, 100 kPa, x1 = 9.568e-05	–	1.532
278.15 K, 100 kPa, x1 = 0.000202	–	1.539
278.15 K, 100 kPa, x1 = 0.0003808	–	1.545
278.15 K, 100 kPa, x1 = 0.0005628	–	1.555
278.15 K, 100 kPa, x1 = 0.0007322	–	1.561
278.15 K, 100 kPa, x1 = 0.0009239	–	1.57
278.15 K, 100 kPa, x1 = 0.001099	–	1.576
278.15 K, 100 kPa, x1 = 0.001363	–	1.587
278.15 K, 100 kPa, x1 = 0.001909	–	1.608
283.15 K, 100 kPa, x1 = 9.568e-05	–	1.314
283.15 K, 100 kPa, x1 = 0.000202	–	1.318
283.15 K, 100 kPa, x1 = 0.0003808	–	1.325
283.15 K, 100 kPa, x1 = 0.0005628	–	1.332
283.15 K, 100 kPa, x1 = 0.0007322	–	1.339
283.15 K, 100 kPa, x1 = 0.0009239	–	1.348
283.15 K, 100 kPa, x1 = 0.001099	–	1.355
283.15 K, 100 kPa, x1 = 0.001363	–	1.365
283.15 K, 100 kPa, x1 = 0.001909	–	1.377
288.15 K, 100 kPa, x1 = 9.568e-05	–	1.146
288.15 K, 100 kPa, x1 = 0.000202	–	1.149
288.15 K, 100 kPa, x1 = 0.0003808	–	1.155
288.15 K, 100 kPa, x1 = 0.0005628	–	1.161
288.15 K, 100 kPa, x1 = 0.0007322	–	1.168
288.15 K, 100 kPa, x1 = 0.0009239	–	1.178
288.15 K, 100 kPa, x1 = 0.001099	–	1.18
288.15 K, 100 kPa, x1 = 0.001363	–	1.189
288.15 K, 100 kPa, x1 = 0.001909	–	1.198
293.15 K, 100 kPa, x1 = 0.0003808	–	1.017
293.15 K, 100 kPa, x1 = 0.0005628	–	1.021
293.15 K, 100 kPa, x1 = 0.0007322	–	1.027
293.15 K, 100 kPa, x1 = 0.0009239	–	1.033
293.15 K, 100 kPa, x1 = 0.001099	–	1.036
293.15 K, 100 kPa, x1 = 0.001363	–	1.044
293.15 K, 100 kPa, x1 = 0.001909	–	1.053
293.15 K, 101 kPa, x2 = 0.4982	–	240
293.15 K, 101 kPa, x2 = 0.9502	–	2.57
298.15 K, 100 kPa, x1 = 0.000202	–	0.9
298.15 K, 100 kPa, x1 = 0.0003808	–	0.904
298.15 K, 100 kPa, x1 = 0.0005628	–	0.908
298.15 K, 100 kPa, x1 = 0.0007322	–	0.913
298.15 K, 100 kPa, x1 = 0.0009239	–	0.918
298.15 K, 100 kPa, x1 = 0.001099	–	0.922
298.15 K, 100 kPa, x1 = 0.001363	–	0.928
298.15 K, 100 kPa, x1 = 0.001909	–	0.936
298.15 K, 101 kPa, x1 = 0.009814	3.03	–
298.15 K, 101 kPa, x2 = 0.8034	3.08	12.6
298.15 K, 101 kPa, x2 = 0.9259	6.29	–
298.15 K, 101 kPa, x2 = 0.9476	6.24	–
298.15 K, 101 kPa, x2 = 0.9647	5.76	–
298.15 K, 101 kPa, x2 = 0.9787	4.73	–
298.15 K, 101.3 kPa, x1 = 8.71e-06	0.00583	–
298.15 K, 101.3 kPa, x1 = 1.208e-05	0.00794	–
298.15 K, 101.3 kPa, x1 = 1.485e-05	0.00965	–
298.15 K, 101.3 kPa, x1 = 1.707e-05	0.01101	–
298.15 K, 101.3 kPa, x1 = 1.937e-05	0.01241	–
298.15 K, 101.3 kPa, x1 = 2.164e-05	0.0138	–
298.15 K, 101.3 kPa, x1 = 2.397e-05	0.0152	–
298.15 K, 101.3 kPa, x1 = 2.6e-05	0.0164	–
298.15 K, 101.3 kPa, x1 = 2.824e-05	0.0177	–
298.15 K, 101.3 kPa, x1 = 3.029e-05	0.019	–
298.15 K, 101.3 kPa, x1 = 0.0009038	–	0.911
298.15 K, 101.3 kPa, x1 = 0.000929	–	0.908
298.15 K, 101.3 kPa, x1 = 0.001008	–	0.919
298.15 K, 101.3 kPa, x1 = 0.001815	–	0.928
298.15 K, 101.3 kPa, x1 = 0.00182	–	0.935
298.15 K, 101.3 kPa, x1 = 0.001824	–	0.928
298.15 K, 101.3 kPa, x1 = 0.003602	–	0.971
303.15 K, 100 kPa, x1 = 9.568e-05	–	0.803
303.15 K, 100 kPa, x1 = 0.000202	–	0.806
303.15 K, 100 kPa, x1 = 0.0003808	–	0.81
303.15 K, 100 kPa, x1 = 0.0005628	–	0.813
303.15 K, 100 kPa, x1 = 0.0007322	–	0.817
303.15 K, 100 kPa, x1 = 0.0009239	–	0.82
303.15 K, 100 kPa, x1 = 0.001099	–	0.823
303.15 K, 100 kPa, x1 = 0.001363	–	0.828
303.15 K, 100 kPa, x1 = 0.001909	–	0.837
303.15 K, 101 kPa, x2 = 0.8999	–	3.82
308.15 K, 100 kPa, x1 = 9.568e-05	–	0.725
308.15 K, 100 kPa, x1 = 0.000202	–	0.727
308.15 K, 100 kPa, x1 = 0.0003808	–	0.73
308.15 K, 100 kPa, x1 = 0.0005628	–	0.733
308.15 K, 100 kPa, x1 = 0.0007322	–	0.737
308.15 K, 100 kPa, x1 = 0.0009239	–	0.74
308.15 K, 100 kPa, x1 = 0.001099	–	0.742
308.15 K, 100 kPa, x1 = 0.001363	–	0.746
308.15 K, 100 kPa, x1 = 0.001909	–	0.754
308.15 K, 101 kPa, x2 = 0.4982	–	92
308.15 K, 101.3 kPa, x1 = 0.0009038	–	0.737
308.15 K, 101.3 kPa, x1 = 0.00092	–	0.733
308.15 K, 101.3 kPa, x1 = 0.000929	–	0.733
308.15 K, 101.3 kPa, x1 = 0.001008	–	0.74
308.15 K, 101.3 kPa, x1 = 0.001815	–	0.748
308.15 K, 101.3 kPa, x1 = 0.00182	–	0.754
308.15 K, 101.3 kPa, x1 = 0.001822	–	0.751
308.15 K, 101.3 kPa, x1 = 0.001824	–	0.747
310.15 K, 101.3 kPa, x1 = 0.0009038	–	0.71
310.15 K, 101.3 kPa, x1 = 0.00092	–	0.705
310.15 K, 101.3 kPa, x1 = 0.000929	–	0.704
310.15 K, 101.3 kPa, x1 = 0.001008	–	0.712
310.15 K, 101.3 kPa, x1 = 0.001815	–	0.722
310.15 K, 101.3 kPa, x1 = 0.00182	–	0.728
310.15 K, 101.3 kPa, x1 = 0.001822	–	0.722
310.15 K, 101.3 kPa, x1 = 0.001824	–	0.717
313.15 K, 100 kPa, x1 = 9.568e-05	–	0.658
313.15 K, 100 kPa, x1 = 0.000202	–	0.66
313.15 K, 100 kPa, x1 = 0.0003808	–	0.663
313.15 K, 100 kPa, x1 = 0.0005628	–	0.665
313.15 K, 100 kPa, x1 = 0.0007322	–	0.668
313.15 K, 100 kPa, x1 = 0.0009239	–	0.671
313.15 K, 100 kPa, x1 = 0.001099	–	0.673
313.15 K, 100 kPa, x1 = 0.001363	–	0.677
313.15 K, 100 kPa, x1 = 0.001909	–	0.686
318.15 K, 101.3 kPa, x1 = 0.0009038	–	0.613
318.15 K, 101.3 kPa, x1 = 0.00092	–	0.608
318.15 K, 101.3 kPa, x1 = 0.000929	–	0.607
318.15 K, 101.3 kPa, x1 = 0.001008	–	0.615
318.15 K, 101.3 kPa, x1 = 0.001815	–	0.624
318.15 K, 101.3 kPa, x1 = 0.00182	–	0.625
318.15 K, 101.3 kPa, x1 = 0.001822	–	0.623
318.15 K, 101.3 kPa, x1 = 0.001824	–	0.618

COC[n+]1ccn(C)c1.O=S(=O)([N-]S(=O)(=O)C(F)(F)F)C(F)(F)F + O
Conditions	viscosity [mPa·s]
283 K, 101 kPa, x1 = 0.8283	80.4
